The values below come from patent US8722849B2, “Polypeptides” (Novo Nordisk A/S, priority 2011, dated 2014).

In brackets after ≈: the same amount, converted by molar mass. Where two headings read alike, the source gives them in different places. Starred links: 1 amine or outer side, 2 acyl side, 3 side chain; linkers in the order of their positions; H or OH if unused. Positions of bridges follow the written chain, without caps; N, C: chain ends. Residues, ends and D or L forms follow the SMILES beside them. *: point of attachment. C20 diacid = O=C(O)CCCCCCCCCCCCCCCCCCC(=O)*; γGlu = O=C(O)[C@H](CCC(=O)[*:2])N[*:1]

Series [1] deals with T1, human amylin receptor (amylin 3(a) receptor: human calcitonin receptor + RAMP-3) (Homo sapiens, UniProt O60896+P30988).
T1 construct: expressed in transfected cells; host or cells: BHK570
T1 sequence (P30988 25-474): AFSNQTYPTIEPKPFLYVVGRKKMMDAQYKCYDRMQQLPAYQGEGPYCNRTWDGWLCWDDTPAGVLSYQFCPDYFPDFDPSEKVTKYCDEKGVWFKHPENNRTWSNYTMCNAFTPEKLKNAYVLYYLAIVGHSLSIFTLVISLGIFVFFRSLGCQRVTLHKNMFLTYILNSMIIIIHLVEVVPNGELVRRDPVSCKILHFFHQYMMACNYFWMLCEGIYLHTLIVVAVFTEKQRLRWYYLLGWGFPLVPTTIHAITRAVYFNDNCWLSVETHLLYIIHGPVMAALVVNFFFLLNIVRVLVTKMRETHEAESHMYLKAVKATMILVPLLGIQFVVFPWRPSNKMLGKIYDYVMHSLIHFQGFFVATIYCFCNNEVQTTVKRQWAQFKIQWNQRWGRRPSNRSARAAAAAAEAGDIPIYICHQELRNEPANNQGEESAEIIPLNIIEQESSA
T1 sequence (O60896 24-148 partner): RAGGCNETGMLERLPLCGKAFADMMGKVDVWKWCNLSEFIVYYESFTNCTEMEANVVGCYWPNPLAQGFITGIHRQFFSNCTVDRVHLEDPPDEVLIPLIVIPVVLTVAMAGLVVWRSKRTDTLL
Nature of the series: Assay (II)a functional CRE-luciferase assay, human amylin receptor. It is filed as cell-based. As to conditions: Table 2; BHK amylin 3(a)-receptor/CRE-luc cells.

In series [2] the target is T2, human calcitonin receptor (Homo sapiens, UniProt P30988).
T2 construct: expressed in transfected cells; host or cells: BHK570
T2 sequence (P30988 25-474): T1 sequence (P30988 25-474)
Nature of the series: Assay (II)a functional CRE-luciferase assay, human calcitonin receptor. It is filed as cell-based. The settings on record: Table 7; human calcitonin (CTa) receptor.

Series [3] in a line: Assay (III) ThT fibrillation assay for physical stability. In kind it is physicochemical. The settings on record: ThT fibrillation assay. Summed up:
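Freshly prepared formulations, pH-adjusted, with 1 μM ThT; four or eight replicates incubated at 37 °C under 960 rpm orbital shaking. Fluorescence (ex 444/em 485 nm) read every 20 min; […]. Peptide concentration measured by RP-HPLC before and after the run.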

Series [4] is described as follows: Assay (IV) determination of solubility. In kind it is physicochemical. In a few lines: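 Solubility was profiled across pH 3.0–8.0 after 18 hours at room temperature: a ~500 nmol/ml aqueous polypeptide solution was diluted 1:1 into 100 mM glycylglycine or bistrispropane buffers. After centrifugation, HPLC gave the dissolved concentration.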
Setting [5] is: bistrispropane buffer, pH 6, pH 6.0, read-out: Solubility pH 6.0.
[6] abbreviates: bistrispropane buffer, pH 6.5, pH 6.5, read-out: Solubility pH 6.5.
The mark [7] stands for this setting: bistrispropane buffer, pH 7, pH 7.0, read-out: Solubility pH 7.0.
[8] abbreviates: bistrispropane buffer, pH 7.5, pH 7.5, read-out: Solubility pH 7.5.
Where [9] appears, read: bistrispropane buffer, pH 8, pH 8.0, read-out: Solubility pH 8.0.
[10] abbreviates: glycylglycine buffer, pH 3, pH 3.0, read-out: Solubility pH 3.0.
[11] abbreviates: glycylglycine buffer, pH 4, pH 4.0, 18 hours at room temperature, Table 2, read-out: Solubility pH 4.0.
Where [12] appears, read: glycylglycine buffer, pH 4, pH 4.0, read-out: Solubility pH 4.0.
Where [13] appears, read: glycylglycine buffer, pH 5, pH 5.0, read-out: Solubility pH 5.0.

For orientation: EC50 means the concentration needed to bring the measured effect to its halfway point. A word on the solubility: it is the dissolved amount per volume that the medium holds. In the case of `CC[C@H](C)[C@H](NC(=O)[C@@H]1CCCN1C(=O)CNC(=O)[C@H](Cc1ccccc1)NC(=O)[C@H](CC(N)=O)NC(=O)[C@H](CO)NC(=O)[C@H](CO)NC(=O)[C@H](CO)NC(=O)[C@H](Cc1c[nH]cn1)NC(=O)[C@H](CCCNC(=N)N)NC(=O)[C@H](CC(C)C)NC(=O)[C@H](Cc1ccccc1)NC(=O)[C@H](CCC(=O)O)NC(=O)[C@H](C)NC(=O)[C@H](CC(C)C)NC(=O)[C@H](CCCNC(=N)N)NC(=O)[C@H](CCC(N)=O)NC(=O)[C@@H](NC(=O)[C@H](C)NC(=O)[C@@H]1CSSC[C@H](NC(=O)[C@H](Cc2c[nH]cn2)NC(=O)CC[C@H](NC(=O)CCCCCCCCCCCCCCCCCCC(=O)O)C(=O)O)C(=O)N[C@@H](CC(N)=O)C(=O)N[C@@H]([C@@H](C)O)C(=O)N[C@@H](C)C(=O)N[C@@H]([C@@H](C)O)C(=O)N1)[C@@H](C)O)C(=O)N[C@@H](CC(C)C)C(=O)N[C@@H](CO)C(=O)N[C@@H](CO)C(=O)N[C@H](C(=O)N[C@@H](CC(N)=O)C(=O)N[C@H](C(=O)NCC(=O)N[C@@H](CO)C(=O)N[C@@H](Cc1c[nH]cn1)C(=O)N[C@H](C(=O)N[C@@H](Cc1ccc(O)cc1)C(N)=O)[C@@H](C)O)C(C)C)[C@@H](C)O` [Example 111, N-alpha-[(S)-4-Carboxy-4-(19-carboxynonadecanoylamino)butyryl]-[His1,Glu14,Arg17,Ser21,Ser28,Ser29,His35]-pramlintide] ({C20 diacid-γGlu}-HCNTATCATQRLAEFLRHSSSNFGPILSSTNVGSHTY-NH2; disulfide 2-7 (inferred)), the concentration giving a half-maximal response (EC50) was determined as 394 pM in series [1] and 570 pM in series [2]. In addition, in series [3], the “ThT pH 4.0 lag time” value is listed as greater than 45 h. Further, the “ThT pH 4.0 lag time (h)” value in series [3] is given as greater than 45 h. For the same compound, the solubility at 18 h is 2 µM (≈ 8.92 µg/mL) in series [4] (setting [5]); 1 µM (≈ 4.46 µg/mL) in series [4] (setting [6]); 1 µM (≈ 4.46 µg/mL) in series [4] (setting [7]); 1 µM (≈ 4.46 µg/mL) in series [4] (setting [8]); 3 µM (≈ 13.4 µg/mL) in series [4] (setting [9]); greater than 200 µM in series [4] (setting [10]). Also, the solubility at 18 h in series [4] (setting [11]), in series [4] (setting [12]) and in series [4] (setting [13]) was greater than 200 µM throughout.

`CC[C@H](C)[C@H](NC(=O)[C@@H]1CCCN1C(=O)CNC(=O)[C@H](Cc1ccccc1)NC(=O)[C@H](CC(N)=O)NC(=O)[C@H](CC(N)=O)NC(=O)[C@H](CO)NC(=O)[C@H](CO)NC(=O)[C@H](Cc1c[nH]cn1)NC(=O)[C@H](Cc1c[nH]cn1)NC(=O)[C@H](CC(C)C)NC(=O)[C@H](Cc1ccccc1)NC(=O)[C@H](CCC(=O)O)NC(=O)[C@H](C)NC(=O)[C@H](CC(C)C)NC(=O)[C@H](CCCNC(=N)N)NC(=O)[C@H](CCC(N)=O)NC(=O)[C@@H](NC(=O)[C@H](C)NC(=O)[C@@H]1CSSC[C@H](NC(=O)[C@H](CCCNC(=N)N)NC(=O)[C@H](CCC(=O)O)NC(=O)CC[C@H](NC(=O)CCCCCCCCCCCCCCCCCCC(=O)O)C(=O)O)C(=O)N[C@@H](CC(N)=O)C(=O)N[C@@H]([C@@H](C)O)C(=O)N[C@@H](C)C(=O)N[C@@H]([C@@H](C)O)C(=O)N1)[C@@H](C)O)C(=O)N[C@@H](CC(C)C)C(=O)N1CCC[C@H]1C(=O)N1CCC[C@H]1C(=O)N[C@H](C(=O)N[C@@H](CC(N)=O)C(=O)N[C@H](C(=O)NCC(=O)N[C@@H](CO)C(=O)N[C@@H](CC(N)=O)C(=O)N[C@H](C(=O)N[C@@H](Cc1ccc(O)cc1)C(N)=O)[C@@H](C)O)C(C)C)[C@@H](C)O` [Example 25, N-alpha-[(S)-4-Carboxy-4-(19-carboxynonadecanoylamino)butyryl]-Glu-[Arg1,Glu14,His17]-pramlintide] ({C20 diacid-γGlu}-ERCNTATCATQRLAEFLHHSSNNFGPILPPTNVGSNTY-NH2; disulfide 3-8 (inferred)): the results for the EC50 in series [1] and in series [2] were 119 pM and 184 pM, respectively. The “ThT pH 4.0 lag time (h)” value in series [3] was 2.7 h. For the same compound, the solubility at 18 h in series [4] (setting [5]) was greater than 200 µM; in series [4] (setting [6]), greater than 200 µM; in series [4] (bistrispropane buffer, pH 7, pH 7.0, 18 hours at room temperature, Table 3, read-out: Solubility pH 7.0), greater than 200 µM; in series [4] (setting [7]), greater than 200 µM; in series [4] (setting [8]), greater than 200 µM; in series [4] (setting [9]) it was greater than 200 µM. The solubility at 18 h in series [4] (setting [10]), in series [4] (setting [11]), in series [4] (setting [12]) and in series [4] (setting [13]) was greater than 200 µM throughout.

Take `CC[C@H](C)[C@H](NC(=O)[C@@H]1CCCN1C(=O)CNC(=O)[C@H](Cc1ccccc1)NC(=O)[C@H](CC(N)=O)NC(=O)[C@H](CC(N)=O)NC(=O)[C@H](CO)NC(=O)[C@H](CO)NC(=O)[C@H](Cc1c[nH]cn1)NC(=O)[C@H](Cc1c[nH]cn1)NC(=O)[C@H](CC(C)C)NC(=O)[C@H](Cc1ccccc1)NC(=O)[C@H](CCC(=O)O)NC(=O)[C@H](C)NC(=O)[C@H](CC(C)C)NC(=O)[C@H](CCCNC(=N)N)NC(=O)[C@H](CCC(N)=O)NC(=O)[C@@H](NC(=O)[C@H](C)NC(=O)[C@@H]1CSSC[C@H](NC(=O)[C@H](CCCCN)NC(=O)CC[C@H](NC(=O)CCCCCCCCCCCCCCCCCCC(=O)O)C(=O)O)C(=O)N[C@@H](CC(N)=O)C(=O)N[C@@H]([C@@H](C)O)C(=O)N[C@@H](C)C(=O)N[C@@H]([C@@H](C)O)C(=O)N1)[C@@H](C)O)C(=O)N[C@@H](CC(C)C)C(=O)N1CCC[C@H]1C(=O)N1CCC[C@H]1C(=O)N[C@H](C(=O)N[C@@H](CC(N)=O)C(=O)N[C@@H](Cc1c[nH]cn1)C(=O)NCC(=O)N[C@@H](CO)C(=O)N[C@@H](CC(N)=O)C(=O)N[C@H](C(=O)N[C@@H](Cc1ccc(O)cc1)C(N)=O)[C@@H](C)O)[C@@H](C)O` [Example 116, N-alpha-[(S)-4-Carboxy-4-(19-carboxynonadecanoylamino)butyryl]-[Glu14,His17,His32]-pramlintide] ({C20 diacid-γGlu}-KCNTATCATQRLAEFLHHSSNNFGPILPPTNHGSNTY-NH2; disulfide 2-7 (inferred); C-terminus assumed): the EC50 in series [1] is 487 pM; in series [2] it was 124 pM. Moreover, the “ThT pH 4.0 lag time” value in series [3] is greater than 45 h. Besides, the “ThT pH 4.0 lag time (h)” value in series [3] is given as greater than 45 h. Moreover, the solubility at 18 h is greater than 200 µM in series [4] (setting [5]); 120 µM (≈ 539 µg/mL) in series [4] (setting [6]); 44 µM (≈ 198 µg/mL) in series [4] (setting [7]); 79 µM (≈ 355 µg/mL) in series [4] (setting [8]); 173 µM (≈ 777 µg/mL) in series [4] (setting [9]); greater than 200 µM in series [4] (setting [10]). Moreover, the solubility at 18 h in series [4] (setting [11]), in series [4] (setting [12]) and in series [4] (setting [13]) was greater than 200 µM throughout.
